Patent US8802597B2, “Herbicidal pyrimidines” (E I du Pont de Nemours and Company, priority 2003, dated 2014)
Read-outs that look alike come from different tables or passages of the source.

What was measured:
Assay type in all cases: in vivo
[1] = tested on: lambsquarters (Chenopodium album); experiment: Test B pre/postemergence; conditions: Chenopodium album; for pest or weed control at 125 g/ha: 125 g ai/ha; for pest or weed control at 500 g/ha: 500 g ai/ha
In short: (§1)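 Under greenhouse conditions, seeded pots and young plants (1- to 4-leaf, 2 to 18 cm) were treated at the same time with test chemicals in a non-phytotoxic solvent mixture containing surfactant. Response was assessed visually after 13 to 15 days, from 0 (no effect) to 100 (complete control).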

[2] = tested on: morningglory (Ipomoea coccinea); experiment: Test B pre/postemergence; conditions: Ipomoea; for pest or weed control at 125 g/ha: 125 g ai/ha; for pest or weed control at 500 g/ha: 500 g ai/ha
In short: as §1

[3] = tested on: wheat (Triticum aestivum); experiment: Test B pre/postemergence; conditions: Triticum aestivum; for plant injury at 125 g/ha: 125 g ai/ha; for plant injury at 500 g/ha: 500 g ai/ha
In short: as §1

corn (Zea mays) = experiment: Test B pre/postemergence; conditions: Zea mays
In short: as §1

[4] = tested on: crabgrass (Digitaria sanguinalis); experiment: Test B pre/postemergence; conditions: Digitaria sanguinalis; for pest or weed control at 125 g/ha: 125 g ai/ha; for pest or weed control at 500 g/ha: 500 g ai/ha
In short: as §1

[5] = tested on: Surinam grass (Brachiaria decumbens); experiment: Test B pre/postemergence; conditions: Urochloa decumbens; for pest or weed control at 125 g/ha: 125 g ai/ha; for pest or weed control at 500 g/ha: 500 g ai/ha
In short: as §1

[6] = tested on: cocklebur (Xanthium strumarium); experiment: Test B pre/postemergence; conditions: Xanthium strumarium; for pest or weed control at 125 g/ha: 125 g ai/ha; for pest or weed control at 500 g/ha: 500 g ai/ha
In short: as §1

[7] = tested on: pigweed (Amaranthus retroflexus); experiment: Test B pre/postemergence; conditions: Amaranthus retroflexus; for pest or weed control at 125 g/ha: 125 g ai/ha; for pest or weed control at 500 g/ha: 500 g ai/ha
In short: as §1

[8] = tested on: velvetleaf (Abutilon theophrasti); experiment: Test B pre/postemergence; conditions: Abutilon theophrasti; for pest or weed control at 125 g/ha: 125 g ai/ha; for pest or weed control at 500 g/ha: 500 g ai/ha
In short: as §1

[9] = tested on: giant foxtail (Setaria faberii); experiment: Test B pre/postemergence; conditions: Setaria faberi; for pest or weed control at 125 g/ha: 125 g ai/ha; for pest or weed control at 500 g/ha: 500 g ai/ha
In short: as §1

[10] = tested on: barnyardgrass (Echinochloa crus-galli); experiment: Test B pre/postemergence; conditions: Echinochloa crus-galli; for pest or weed control at 125 g/ha: 125 g ai/ha; for pest or weed control at 500 g/ha: 500 g ai/ha
In short: as §1

wild oat (Avena fatua) = experiment: Test B postemergence; conditions: Avena fatua, post-emergence
In short: as §1

[11] = tested on: blackgrass (Alopecurus myosuroides); experiment: Test B postemergence; conditions: Alopecurus myosuroides, post-emergence
In short: as §1

[12] = tested on: umbrella sedge (Cyperus difformis); experiment: Test B flooded paddy test; conditions: Cyperus difformis, Flood, 1000 g ai/ha; scale 0 to 100; read-out: Plant response rating, Sedge, Umbrella
In short: (§2)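 Rice, umbrella sedge, duck salad and barnyardgrass grown to 2-leaf stage under flooded paddy conditions and treated with formulated test chemicals. Kept in greenhouse 13–15 days, then visually rated against untreated controls on a 0–100 scale (0 no effect, 100 complete control).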

rice (Oryza sativa) = experiment: Test B flooded paddy test; conditions: Oryza sativa, Flood, 1000 g ai/ha; scale 0 to 100; read-out: Plant response rating, Rice
In short: as §2

[13] = tested on: duck salad (Heteranthera limosa); experiment: Test B flooded paddy test; conditions: Heteranthera limosa, Flood, 1000 g ai/ha; scale 0 to 100; read-out: Plant response rating, Ducksalad
In short: as §2

[14] = tested on: barnyardgrass (Echinochloa crus-galli); experiment: Test B flooded paddy test; conditions: Echinochloa crus-galli, Flood, 1000 g ai/ha; scale 0 (no effect) to 100 (complete control); read-out: Plant response rating, Barnyardgrass
In short: as §2

COC(=O)c1nc(C2CC2)nc(N)c1I [Compound 7]
pest or weed control at 125 g/ha ([1]; post-emergence, Postemergence, scale 0 to 100 (0 no effect, 100 complete control), read-out: Lambsquarters plant response rating): 80%
pest or weed control at 500 g/ha ([1]; post-emergence, Postemergence, scale 0 to 100, read-out: Plant response rating, Lambsquarters): 100%
pest or weed control at 125 g/ha ([1]; pre-emergence, Preemergence, scale 0 to 100 (0 no effect, 100 complete control), read-out: Plant response rating, Lambsquarters): 80%
pest or weed control at 500 g/ha ([1]; pre-emergence, Preemergence, scale 0 to 100 (0 no effect, 100 complete control), read-out: Lambsquarters plant response rating): 90%
pest or weed control at 125 g/ha ([2]; post-emergence, Postemergence, scale 0 to 100 (0 no effect, 100 complete control), read-out: Morningglory plant response rating): 80%
pest or weed control at 500 g/ha ([2]; post-emergence, Postemergence, scale 0 to 100, read-out: Plant response rating, Morningglory): 90%
pest or weed control at 125 g/ha ([2]; pre-emergence, Preemergence, scale 0 to 100 (0 no effect, 100 complete control), read-out: Plant response rating, Morningglory): 70%
pest or weed control at 500 g/ha ([2]; pre-emergence, Preemergence, scale 0 to 100 (0 no effect, 100 complete control), read-out: Morningglory plant response rating): 80%
plant injury at 125 g/ha ([3]; post-emergence, Postemergence, scale 0 to 100 (0 no effect, 100 complete control), read-out: Wheat plant response rating): 50%
plant injury at 500 g/ha ([3]; post-emergence, Postemergence, scale 0 to 100, read-out: Plant response rating, Wheat): 80%
plant injury at 125 g/ha ([3]; pre-emergence, Preemergence, scale 0 to 100 (0 no effect, 100 complete control), read-out: Plant response rating, Wheat): 0%
plant injury at 500 g/ha ([3]; pre-emergence, Preemergence, scale 0 to 100 (0 no effect, 100 complete control), read-out: Wheat plant response rating): 30%
plant injury at 125 g/ha (corn (Zea mays); post-emergence, Postemergence, 125 g ai/ha, scale 0 to 100 (0 no effect, 100 complete control), read-out: Corn plant response rating): 0%
Corn plant response rating (crop injury, 0 = no effect, 100 = complete kill) at 500 g/ha (corn (Zea mays); post-emergence, Postemergence, 500 g ai/ha, scale 0 to 100): 30%
Corn plant response rating (crop injury, 0 = no effect, 100 = complete kill) at 125 g/ha (corn (Zea mays); pre-emergence, Preemergence, 125 g ai/ha, scale 0 to 100 (0 no effect, 100 complete control)): 0%
plant injury at 500 g/ha (corn (Zea mays); pre-emergence, Preemergence, 500 g ai/ha, scale 0 to 100 (0 no effect, 100 complete control), read-out: Corn plant response rating): 0%
pest or weed control at 125 g/ha ([4]; post-emergence, Postemergence, scale 0 to 100 (0 no effect, 100 complete control), read-out: Crabgrass plant response rating): 10%
pest or weed control at 500 g/ha ([4]; post-emergence, Postemergence, scale 0 to 100, read-out: Plant response rating, Crabgrass): 30%
pest or weed control at 125 g/ha ([4]; pre-emergence, Preemergence, scale 0 to 100 (0 no effect, 100 complete control), read-out: Plant response rating, Crabgrass): 0%
pest or weed control at 500 g/ha ([4]; pre-emergence, Preemergence, scale 0 to 100 (0 no effect, 100 complete control), read-out: Crabgrass plant response rating): 30%
pest or weed control at 125 g/ha ([5]; post-emergence, Postemergence, scale 0 to 100 (0 no effect, 100 complete control), read-out: Surinam Grass plant response rating): 0%
pest or weed control at 500 g/ha ([5]; post-emergence, Postemergence, scale 0 to 100, read-out: Plant response rating, Surinam Grass): 20%
pest or weed control at 125 g/ha ([5]; pre-emergence, Preemergence, scale 0 to 100 (0 no effect, 100 complete control), read-out: Plant response rating, Surinam Grass): 0%
pest or weed control at 500 g/ha ([5]; pre-emergence, Preemergence, scale 0 to 100 (0 no effect, 100 complete control), read-out: Surinam Grass plant response rating): 0%
pest or weed control at 125 g/ha ([6]; post-emergence, Postemergence, scale 0 to 100 (0 no effect, 100 complete control), read-out: Cocklebur plant response rating): 90%
pest or weed control at 500 g/ha ([6]; post-emergence, Postemergence, scale 0 to 100, read-out: Plant response rating, Cocklebur): 100%
pest or weed control at 125 g/ha ([6]; pre-emergence, Preemergence, scale 0 to 100 (0 no effect, 100 complete control), read-out: Plant response rating, Cocklebur): 70%
pest or weed control at 500 g/ha ([6]; pre-emergence, Preemergence, scale 0 to 100 (0 no effect, 100 complete control), read-out: Cocklebur plant response rating): 80%
pest or weed control at 125 g/ha ([7]; post-emergence, Postemergence, scale 0 to 100 (0 no effect, 100 complete control), read-out: Pigweed plant response rating): 0%
pest or weed control at 500 g/ha ([7]; post-emergence, Postemergence, scale 0 to 100, read-out: Plant response rating, Pigweed): 90%
pest or weed control at 125 g/ha ([7]; pre-emergence, Preemergence, scale 0 to 100 (0 no effect, 100 complete control), read-out: Plant response rating, Pigweed): 90%
pest or weed control at 500 g/ha ([7]; pre-emergence, Preemergence, scale 0 to 100 (0 no effect, 100 complete control), read-out: Pigweed plant response rating): 90%
pest or weed control at 125 g/ha ([8]; post-emergence, Postemergence, scale 0 to 100 (0 no effect, 100 complete control), read-out: Velvetleaf plant response rating): 50%
pest or weed control at 500 g/ha ([8]; post-emergence, Postemergence, scale 0 to 100, read-out: Plant response rating, Velvetleaf): 90%
pest or weed control at 125 g/ha ([8]; pre-emergence, Preemergence, scale 0 to 100 (0 no effect, 100 complete control), read-out: Plant response rating, Velvetleaf): 50%
pest or weed control at 500 g/ha ([8]; pre-emergence, Preemergence, scale 0 to 100 (0 no effect, 100 complete control), read-out: Velvetleaf plant response rating): 80%
pest or weed control at 125 g/ha ([9]; post-emergence, Postemergence, scale 0 to 100 (0 no effect, 100 complete control), read-out: Foxtail, Giant plant response rating): 20%
pest or weed control at 500 g/ha ([9]; post-emergence, Postemergence, scale 0 to 100, read-out: Plant response rating, Foxtail, Giant): 40%
pest or weed control at 125 g/ha ([9]; pre-emergence, Preemergence, scale 0 to 100 (0 no effect, 100 complete control), read-out: Plant response rating, Foxtail, Giant): 0%
pest or weed control at 500 g/ha ([9]; pre-emergence, Preemergence, scale 0 to 100 (0 no effect, 100 complete control), read-out: Foxtail, Giant plant response rating): 0%
pest or weed control at 125 g/ha ([10]; post-emergence, Postemergence, scale 0 to 100 (0 no effect, 100 complete control), read-out: Barnyardgrass plant response rating): 0%
pest or weed control at 500 g/ha ([10]; post-emergence, Postemergence, scale 0 to 100, read-out: Plant response rating, Barnyardgrass): 30%
pest or weed control at 125 g/ha ([10]; pre-emergence, Preemergence, scale 0 to 100 (0 no effect, 100 complete control), read-out: Plant response rating, Barnyardgrass): 0%
pest or weed control at 500 g/ha ([10]; pre-emergence, Preemergence, scale 0 to 100 (0 no effect, 100 complete control), read-out: Barnyardgrass plant response rating): 30%
pest or weed control at 125 g/ha (wild oat (Avena fatua); 125 g ai/ha, scale 0 to 100 (0 no effect, 100 complete control), read-out: Oat, Wild plant response rating): 40%
pest or weed control at 500 g/ha (wild oat (Avena fatua); 500 g ai/ha, scale 0 to 100, read-out: Plant response rating, Oat, Wild): 70%
pest or weed control at 125 g/ha ([11]; 125 g ai/ha, scale 0 to 100 (0 no effect, 100 complete control), read-out: Blackgrass plant response rating): 60%
pest or weed control at 500 g/ha ([11]; 500 g ai/ha, scale 0 to 100, read-out: Plant response rating, Blackgrass): 80%
pest or weed control at 1000 g/ha [12]: 0%
plant injury at 1000 g/ha (rice (Oryza sativa)): 0%
pest or weed control at 1000 g/ha [13]: 0%
pest or weed control at 1000 g/ha [14]: 20%
